Assay [1] deals with CT26 tumor cells. In words: Survival of mice with CT26 hepatic tumors (hemispleen injection model) after attenuated Listeria, with or without CTX. The following applies: FIG. 1D. The class given is in vivo, BALB/c mice.
Experimental: Hemispleen injections were as follows. BALB/c mice were anaesthetized and the spleen exposed. The spleen was divided into two hemispleens, leaving the vascular pedicles intact. Using a 27 gauge needle, about 0.1 million viable CT26 cells in 0.4 ml HBSS buffer were injected into the spleen, thus allowing cells to flow to the liver. The vascular pedicle draining the cancer-contaminated hemispleen was ligated with a clip, and the CT26-contaminated hemispleen was excised, leaving a functional hemispleen free of tumor cells.
Hepatic tumors were induced in mice as follows. CT26 tumor cells were administered to all mice on day zero (t=0 days) to initiate hepatic tumor formation.
The following concerns the number of doses of Listeria given to the mice. “1×” means that the indicated Listeria strains were administered only at t=3 days post tumor implant (only one dose). “3×” means that the indicated Listeria strains were administered at t=3 days, 6 days, and 9 days. “5×” means that the indicated Listeria strains were administered at t=3 days, 6 days, 9 days, 12 days, and 15 days. The number of administered Listeria ΔactA cells was about 1×10^7 colony forming units (CFU) while the number of Listeria ΔactAΔinlB given was about 2×10^7 CFU (FIG. 1A). […]
Assay [2] concerns CT26 tumor cells. As to the kind of experiment: Long-term adaptive immunity: subcutaneous CT26 re-challenge, Elispot, tumor volume (FIGS. 15, 16). Type of assay: in vivo, mice.
Text: Mice were initially inoculated (t=0 days) with CT26 tumor cells by way of the hemispleen model, and then treated with:
(1) No treatment with any therapeutic agent (“naive mice”);
(2) Listeria ΔactAΔinlB (3 cycles of Listeria ΔactAΔinlB beginning at t=3 days after inoculation with the CT26 tumor cells. Administration of Listeria was once weekly for three weeks. The Listeria ΔactAΔinlB had not been engineered to express any tumor antigen;
(3) GM-CSF vaccine with Listeria ΔactAΔinlB (1 injection of Listeria ΔactAΔinlB at t=6 days). Administration of the GM-CSF vaccine was started three days after injecting the tumor cells in the hemispleen, that is, on days 3, 6, and 10; or
At t=100 days (shortly before the re-challenge) and at t=107 days (post re-challenge), surviving mice in each group were assessed for long-term immunity (Elispot assays) to the immunodominant antigen of the CT26 cells (AH1 antigen). The first Elispot assay (pre re-challenge) served as a baseline assay for use in assessing adaptive immune response. The second Elispot assay (107 days; post re-challenge) was used to assess adaptive immune response. At t=102 days, all mice were inoculated with CT26 tumor cells by way of a subcutaneous re-challenge. […]
Tumor volume was assessed in the days following the CT26 tumor cell re-challenge (FIG. 16). […] The dimensions of these tumors were measured topically.
For another assay, the system named is serum cytokines. As to the kind of experiment: Cytokine concentrations in mouse serum after administering Listeria, poly(I:C), or CpG (Table 7). Type of assay: in vivo. On the procedure: Cytokine levels were measured in serum, where the serum was from blood harvested from mice at various times after administering Listeria or a toll-like receptor (TLR) agonist. The treatment groups were (1) Salt water (HBSS) treatment only (0.2 ml); (2) L. monocytogenes ΔactAΔinlB (1×10^7 bacteria); (3) L. monocytogenes Δhly (deleted in the gene encoding listeriolysin) (3×10^8 bacteria); (4) L. monocytogenes killed but metabolically active (KBMA) (3×10^8 bacteria) (see, e.g. Brockstedt, et al. (2005) Nat. Medicine 11:853-860); (5) heat killed L. monocytogenes ΔactAΔinlB (3×10^8 bacteria); (6) poly(I:C) (0.1 mg); or (7) CpG (0.1 mg). Peripheral blood was withdrawn at various times, and assessed for cytokine concentration (Mouse Cytokine/Chemokine LINCOplex® Kit Catalog # MCYTO-70K; Linco, St. Charles, Mo.; or BD® Cytometric Bead Array, San Jose, Calif.). CpG was CpG ODN 1826, purchased through Invivogen. Cytokine levels were measured on samples withdrawn at 2, 4, 8, 12, and 24 hours after administration of bacteria or TLR agonist.
The cytokines measured included granulocyte-colony stimulating factor (G-CSF); interferon-gamma (IFN-gamma); interleukin-1alpha (IL-1alpha); interleukin-6 (IL-6); interleukin-10 (IL-10); interleukin-12p70 (IL-12p70); interleukin-13 (IL-13); IP-10; KC (mouse ortholog of IL-8); MCP-1; MIP-1α; and TNF.

In the case of `O=P1(N(CCCl)CCCl)NCCCO1` (stereo not drawn) [CTX, cyclophosphamide], in the assay on CT26 tumor cells [1] (CTX at t=4 days, Listeria from day 5, 6 or 7), the “survival (figure legend)” value is “some increase in survival”. Further, the survival result with CT26 tumor cells [1] (CTX only, 50 mg/kg i.p. day 4, t=50 days) is “about 60%”. In the assay with CT26 tumor cells [2] (FIG. 15, t=107 days), the “Elispot response to AH1 after CT26 re-challenge” value was “moderate”. In addition, the “mice tumor free following the re-challenge” value in the assay on CT26 tumor cells [2] (subcutaneous re-challenge with 2×10^5 CT26 cells at t=102 days) was “about 50%”.

Poly (I:C): the “IFN-gamma concentration in mouse serum” value in the assay with serum cytokines (4-8 h (plateau)) is listed as “(25-30 pg/ml)”; in the assay on serum cytokines (2 h) it was “to 15 pg/ml”. For the same compound, the “G-CSF concentration in mouse serum” value in the assay on serum cytokines (8-12 h (peak)) is reported as “(6,000 pg/ml),”; in the assay with serum cytokines (2 h) it was “to 1200 pg/ml”. The “IL-1alpha concentration in mouse serum” value in the assay with serum cytokines (8-12 h (plateau)) is listed as “(170-300 pg/ml)”. Moreover, the “IL-6 concentration in mouse serum” value in the assay on serum cytokines (2 h) is recorded as “(7500 pg/ml)”; in the assay with serum cytokines (4 h), “(5000 pg/ml”; in the assay on serum cytokines (12 h), “near basal”. Also, the “IL-12p70 concentration in mouse serum” value in the assay with serum cytokines (2 h) turned out to be 300 at 2 h pg/ml. In addition, the figures for the “IP-10 concentration in mouse serum” value in the assay with serum cytokines (2 h), in the assay on serum cytokines (4 h (peak)) and in the assay with serum cytokines (24 h) were “to 1400 pg/ml”, 4 h (2100 pg/ml), and “drop (800 pg/ml”, respectively. For the same compound, the “KC concentration in mouse serum” value in the assay on serum cytokines (2 h) is “to 900 pg/ml”; in the assay on serum cytokines (4 h-24 h), “near basal”. Moreover, the “MCP-1 concentration in mouse serum” value is given as “to 29,000 pg/ml” with serum cytokines (2 h); “(10,000 pg/ml” in the assay with serum cytokines (8 h); “(1000 pg/ml)” with serum cytokines (12 h and 24 h). In the assay with serum cytokines (2 h), the “MIP-1a concentration in mouse serum” value was “to 1800 pg/ml”. Besides, the “TNF concentration in mouse serum” value in the assay with serum cytokines (2 h) is given as “to 1500 pg/ml”. Further, the “IL-13 concentration in mouse serum” value in the assay on serum cytokines (2 h-24 h) is “Basal”. The “IL-10 concentration in mouse serum” value in the assay with serum cytokines (4 h, 12 h, 24 h) was 8 h. Basal; with serum cytokines (sporadic spikes found at 2 h and at 8 h), “of 14-80 pg/ml”. Also, the “IL-13 concentration in mouse serum, sporadic spikes in some mice” value in the assay with serum cytokines (4 h, 12 h, 24 h) is reported as “about 200 pg/ml)”.
